# Results as given in patent US8969542B2, “HPV polyepitope constructs and uses thereof” (priority 2007, dated 2015).
# Where no end group is shown, it is not given here.
# Assays:
# HLA A0301 = target: T1, HLA A0301 (Homo sapiens, UniProt P04439); assay: HLA class I competition binding assay using soluble HLA
# T1 construct: endogenous in cells
# HLA A1101 = HLA A1101 (Homo sapiens, UniProt P04439, A114D/D185E/E176A/F33Y/L180Q/S129P/T187R); assay: as above
# HLA A3101 = HLA A3101 (Homo sapiens, UniProt P04439, A270S/D185E/E176V/E277Q/F33T/G231S/G80R/H175R/I121M/I218V/I322F/K168Q/L300P/L318F/M331R/P217A/Q94H/R138Q/T323A/T345S/T97I/V358M); assay: as above
# HLA A3301 = HLA A3301 (Homo sapiens, UniProt P04439, A270S/D185E/E176V/E277Q/E87N/F33T/G231S/H175R/I121M/I218V/I322F/K168Q/K210R/L300P/L318F/M331R/P217A/Q86R/Q94H/R138Q/T323A/T345S/T97I/V358M/Y195H); assay: as above
# HLA A6801 = HLA A6801 (Homo sapiens, UniProt P04439, A269V/D185E/E176V/E277Q/E87N/F33Y/G231S/I121M/I166T/I218V/L180W/L300P/L318F/N151K/P208A/P217A/Q86R/R169H/T345S); assay: as above
# HLA A0202 = HLA A0202 (Homo sapiens, UniProt P04439, D140Y/D185E/D98H/E176V/E277Q/G131W/G231S/I119L/I121R/I166T/I218V/L180W/L300P/L318F/N151K/N90K/P208A/P217A/Q67R/Q86G/Q94H/R138H/R169H/T345S); assay: as above
# HLA A0206 = HLA A0206 (Homo sapiens, UniProt P04439, D140Y/D185E/D98H/E176V/E277Q/F33Y/G131W/G231S/I119V/I121R/I166T/I218V/L300P/L318F/N151K/N90K/P208A/P217A/Q86G/Q94H/R138H/R169H/T345S); assay: as above
# HLA A6802 = HLA A6802 (Homo sapiens, UniProt P04439, A269V/D140Y/D185E/E176V/E277Q/E87N/F33Y/G231S/I121R/I166T/I218V/L180W/L300P/L318F/N151K/P208A/P217A/Q86R/R138H/R169H/S129P/T345S/V36M); assay: as above
# HLA A0201 = HLA A0201 (Homo sapiens, UniProt P04439, D140Y/D185E/D98H/E176V/E277Q/G131W/G231S/I119V/I121R/I166T/I218V/L300P/L318F/N151K/N90K/P208A/P217A/Q86G/Q94H/R138H/R169H/T345S); assay: as above
# HLA A0203 = HLA A0203 (Homo sapiens, UniProt P04439, A173T/D140Y/D185E/D98H/E277Q/G131W/G231S/I119V/I121R/I166T/I218V/L180W/L300P/L318F/N151K/N90K/P208A/P217A/Q86G/Q94H/R138H/R169H/T345S); assay: as above
# HLA A2601 = HLA A2601 (Homo sapiens, UniProt P04439, A114D/A173T/A270S/D101N/D185E/E277Q/E87N/F33Y/G231S/I121R/I218V/K168Q/L180W/L300P/L318F/P208A/P217A/Q86R/Q94H/R138Q/S129P/T187R/T323A/T345S/V100A/V358M); assay: as above
# HLA A2902 = HLA A2902 (Homo sapiens, UniProt P04439, A270S/D101N/D185E/E176V/E277Q/E87Q/F33T/G231S/H175R/I121M/I218V/I322F/K168Q/L300P/L318F/M331R/P208A/P217A/Q86L/T323A/T345S/V100A/V358M); assay: as above
# HLA A3002 = HLA A3002 (Homo sapiens, UniProt P04439, D101N/D140H/D185E/E176R/F33S/G80R/H175R/K168Q/Q94H/R138E/R41S/V100E); assay: as above
# DRB5*0101 (DR2w2beta-2) = DRB5*0101 (DR2w2beta-2) (Homo sapiens, UniProt P01903+Q30154); assay: biochemical
molecule,measurement,setting,value
VVLLLVRYK [compound 12],IC50,HLA A0301,6.3 nM
same,IC50,HLA A1101,4.1 nM
same,IC50,HLA A3101,0.1 nM
same,IC50,HLA A3301,6.1 nM
same,IC50,HLA A6801,76 nM
ILYAHIQCL [compound 27],IC50,HLA A0202,8.5 nM
same,IC50,HLA A0206,236 nM
same,IC50,HLA A6802,> 20000 nM
TVYVFCFLL [compound 29],IC50,HLA A0201,175 nM
same,IC50,HLA A0202,587 nM
same,IC50,HLA A0203,769 nM
same,IC50,HLA A0206,26 nM
CC[C@H](C)[C@H](N)C(=O)N[C@@H](CO)C(=O)N[C@@H](Cc1ccccc1)C(=O)N[C@@H](C)C(=O)NCC(=O)N[C@H](C(=O)N[C@H](C(=O)N[C@H](C(=O)N[C@@H](CCCCN)C(=O)O)[C@@H](C)O)C(C)C)[C@@H](C)CC [compound 57],IC50,HLA A1101,1.6 nM
same,IC50,HLA A3101,115 nM
same,IC50,HLA A6801,16 nM
AATKYPLLK [compound 17],IC50,HLA A1101,20 nM
same,IC50,HLA A3101,> 20000 nM
same,IC50,HLA A3301,> 20000 nM
same,IC50,HLA A6801,> 20000 nM
YQFAFKDLCV [compound 76],IC50,HLA A0202,1.3 nM
same,IC50,HLA A0203,4.2 nM
same,IC50,HLA A0206,10 nM
same,IC50,HLA A6802,3700 nM
CC(C)C[C@H](NC(=O)CNC(=O)[C@@H](NC(=O)[C@H](CC(N)=O)NC(=O)[C@@H](NC(=O)[C@H](CC(C)C)NC(=O)[C@H](CCCCN)NC(=O)[C@H](CCC(=O)O)NC(=O)[C@H](CC(C)C)NC(=O)[C@@H](N)[C@@H](C)O)[C@@H](C)O)[C@@H](C)O)C(=O)N[C@@H](Cc1ccc(O)cc1)C(=O)O [compound 26],IC50,HLA A2601,265 nM
same,IC50,HLA A2902,2380 nM
same,IC50,HLA A3002,476 nM
FLFTDLTIV [compound 53],IC50,HLA A0202,1.3 nM
same,IC50,HLA A0203,3.5 nM
same,IC50,HLA A0206,20 nM
same,IC50,HLA A6802,1900 nM
GTLGIVCPV [compound 11],IC50,HLA A0201,20 nM
FVYIPLFLI [compound 8],IC50,HLA A0201,206 nM
same,IC50,HLA A0202,323 nM
same,IC50,HLA A0203,63 nM
same,IC50,HLA A6802,251 nM
TLQEIVLHV [compound 77],IC50,HLA A0202,30 nM
same,IC50,HLA A0203,5.1 nM
same,IC50,HLA A6802,2460 nM
CC[C@H](C)[C@H](NC(=O)[C@@H](NC(=O)[C@H](CC(C)C)NC(=O)[C@H](CC(=O)O)NC(=O)[C@@H](NC(=O)[C@H](Cc1ccccc1)NC(=O)[C@H](C)NC(=O)[C@H](Cc1ccccc1)NC(=O)[C@H](CC(=O)O)NC(=O)[C@H](CC(C)C)NC(=O)[C@@H](N)C(C)C)[C@@H](C)O)[C@@H](C)O)C(=O)N[C@H](C(=O)N[C@@H](Cc1ccc(O)cc1)C(=O)N[C@@H](CCCNC(=N)N)C(=O)N[C@@H](CC(=O)O)C(=O)O)C(C)C [compound 111],IC50,DRB5*0101 (DR2w2beta-2),> 20000 nM
FVVYRDSIPK [compound 36],IC50,HLA A0301,3440 nM
same,IC50,HLA A1101,2500 nM
same,IC50,HLA A3101,8 nM
same,IC50,HLA A3301,473 nM
same,IC50,HLA A6801,176 nM
LSQMVQWAY [compound 1],IC50,HLA A2601,6450 nM
same,IC50,HLA A3002,0.93 nM
KLTNKGICDL [compound 54],IC50,HLA A0202,440 nM
same,IC50,HLA A0203,585 nM
same,IC50,HLA A0206,484 nM
same,IC50,HLA A6802,> 20000 nM
ATCVSHRGLY [compound 25],IC50,HLA A2601,646 nM
QVVPAYNISK [compound 35],IC50,HLA A0301,308 nM
VTTRYPLLR [compound 81],IC50,HLA A0301,158 nM
same,IC50,HLA A3301,> 20000 nM
same,IC50,HLA A6801,3150 nM
KLTNTGLYNV [compound 31],IC50,HLA A0202,2.9 nM
same,IC50,HLA A0206,83 nM
same,IC50,HLA A6802,688 nM
KLLSKLLCV [compound 7],IC50,HLA A0201,31 nM
LQDKILDHY [compound 67],IC50,HLA A2601,5000 nM
same,IC50,HLA A3002,836 nM
STAAALYWYR [compound 56],IC50,HLA A0301,198 nM
same,IC50,HLA A1101,10 nM
same,IC50,HLA A3101,5.6 nM
same,IC50,HLA A3301,47 nM
same,IC50,HLA A6801,12 nM
FIYIPLFVI [compound 52],IC50,HLA A0201,26 nM
same,IC50,HLA A0203,47 nM
same,IC50,HLA A0206,8.1 nM
same,IC50,HLA A6802,157 nM
SVYGTTLER [compound 60],IC50,HLA A0301,22 nM
same,IC50,HLA A1101,7 nM
same,IC50,HLA A3101,75 nM
same,IC50,HLA A3301,853 nM
same,IC50,HLA A6801,4 nM
TLYAHIQCL [compound 72],IC50,HLA A0201,34 nM
QTEPDTSNY [compound 48],IC50,HLA A2601,> 20000 nM
STWHWTGCNK [compound 80],IC50,HLA A1101,2.8 nM
same,IC50,HLA A3301,428 nM
KSLFGMSLMK [compound 15],IC50,HLA A0301,3.9 nM
same,IC50,HLA A3101,230 nM
same,IC50,HLA A6801,887 nM
AVMCRHYKR [compound 78],IC50,HLA A0301,311 nM
same,IC50,HLA A1101,38 nM
same,IC50,HLA A6801,29 nM
LTDVSIACVY [compound 69],IC50,HLA A2601,8200 nM
DSVYGDTLER [compound 37],IC50,HLA A0301,193 nM
same,IC50,HLA A3101,246 nM
same,IC50,HLA A6801,44 nM
ELDPVDLLCY [compound 71],IC50,HLA A2601,2110 nM
same,IC50,HLA A3002,> 20000 nM
SVICFVNSK [compound 16],IC50,HLA A1101,2.2 nM
same,IC50,HLA A3301,51 nM
same,IC50,HLA A6801,5.4 nM
CLYLHIQSL [compound 6],IC50,HLA A0202,45 nM
same,IC50,HLA A0206,100 nM
same,IC50,HLA A6802,1780 nM
YVVWDSIYYI [compound 73],IC50,HLA A0203,248 nM
same,IC50,HLA A0206,20 nM
same,IC50,HLA A6802,30 nM
KVSEFRWYRY [compound 59],IC50,HLA A0301,213 nM
same,IC50,HLA A3101,3 nM
same,IC50,HLA A3301,338 nM
same,IC50,HLA A6801,192 nM
CC[C@H](C)[C@H](NC(=O)[C@H](CC(=O)O)NC(=O)[C@H](CCC(N)=O)NC(=O)[C@H](CC(C)C)NC(=O)[C@@H](N)CO)C(=O)N[C@@H](CCC(=O)O)C(=O)N[C@H](C(=O)N[C@H](C(=O)N[C@@H](CS)C(=O)N[C@H](C(=O)O)C(C)C)[C@@H](C)O)[C@@H](C)CC [compound 30],IC50,HLA A0201,153 nM
same,IC50,HLA A0203,38 nM
same,IC50,HLA A6802,> 20000 nM
CC[C@H](C)[C@H](NC(=O)[C@H](Cc1c[nH]cn1)NC(=O)[C@H](C)NC(=O)[C@H](Cc1ccc(O)cc1)NC(=O)[C@H](CC(C)C)NC(=O)[C@@H](NC(=O)[C@H](C)NC(=O)[C@@H]1CCCN1C(=O)[C@H](CCCCN)NC(=O)[C@@H](NC(=O)[C@H](CC(C)C)NC(=O)[C@@H](NC(=O)[C@H](CCCCN)NC(=O)[C@@H](N)Cc1ccccc1)[C@@H](C)O)[C@@H](C)CC)[C@@H](C)O)C(=O)N[C@@H](CCC(N)=O)C(=O)O [compound 115],IC50,DRB5*0101 (DR2w2beta-2),1000 nM
TLHDIILECV [compound 9],IC50,HLA A0201,3.6 nM
same,IC50,HLA A0202,0.54 nM
same,IC50,HLA A0203,1.9 nM
same,IC50,HLA A0206,92 nM
same,IC50,HLA A6802,2950 nM
KLLEKLLCI [compound 49],IC50,HLA A0203,2.4 nM
SVYGETLEK [compound 83],IC50,HLA A1101,9.5 nM
same,IC50,HLA A3101,6510 nM
same,IC50,HLA A6801,7.2 nM
SLVFLLCFSV [compound 74],IC50,HLA A0201,8.5 nM
same,IC50,HLA A6802,20 nM
ATTPIIHLK [compound 58],IC50,HLA A0301,10 nM
same,IC50,HLA A1101,1.2 nM
same,IC50,HLA A3101,34 nM
same,IC50,HLA A3301,> 20000 nM
same,IC50,HLA A6801,2.5 nM
ATLQDIVLH [compound 38],IC50,HLA A0301,211 nM
same,IC50,HLA A3101,543 nM
